# Results as given in patent publication US10189826B2, “Heterocyclic compounds and methods of use” (Medivation Technologies LLC, priority 2015, dated 2019).
# Read-outs that look alike come from different tables or passages of the source.
# Experiments:
# [1] = tested on: SREBP-2 transcriptional activity (SREBP2 cleavage) in HepG2_LSSprom cells; test: Luciferase reporter driven by a SREBP-2 specific promoter in HepG2_LSSprom cells; type: cell-based
# Description: Dose response effects were measured of Compounds on the transcriptional activity of a Luciferase reporter driven by a SREBP-2 specific promoter in HepG2_LSSprom cells.
# (§1) HepG2_LSSprom cells (SwitchGear Genomics, cat# C711010L) were cultured in DMEM with 10% of fetal bovine serum (FBS), supplemented with Puromycin (1 μg/mL), 1% Penicillin/Streptomycin (Pen-Strep), 37° C., humidified, 95% air and 5% CO2. Culture media was refreshed every 2 or 3 days. Cells were used between passage number 6-12.
# For luminescence assays, cells were plated out at 20,000 cells/well in white 96 well plates in DMEM plus 10% FBS and 1% Pen-Strep without puromycin. After 1 day, cells were treated with Compound by diluting the drug in culture medium without FBS to a final concentration of 0.625, 1.25, 2.5, 3.75, 5 and 10 μM. Drug was prepared by dilutions of 10 mM stock aliquots. As control was used culture medium without FBS plus DMSO. Treatments with Compound were maintained for 6 h, or 24 h, until the luciferase assay was carried out.
# After 6 h of treatments with Compound, the luciferase assay was performed. Briefly, the assay solution (buffer+substrate) was prepare just prior to use. To each well 100 μL of assay solution was added. The 96-well plate was then gently mix for 2 min and incubated for 30 min at RT protected from light. The luminescence was read using a Synergy 4 (Biotek) equipment recording luminescence with sensibility set up at 150.
# (§2) Five independent experiments were carried out for both luciferase and cytotoxicity assay. In each experiment, three wells were use per condition and the results are represented as means±SEM.
# For luciferase assay, Vehicle (no treatment) was taken as 100% of luciferase activity. This value represents the SREBP-2 transcriptional activity for the vehicle condition and was taken as 100% of SREBP-2 cleaved. The percentage for each treatment was calculated normalizing against the vehicle control. The graphics were made using the GraphPad Prism ver. 6.05 software. Half of maximal inhibitory concentration (IC50) of the effect of Compound on SREBP was obtain by nonlinear fit regression of mean normalized values vs. Compound concentration using the log(inhibitor) vs. response−Variable slope (four parameters) tool.
# [2] = Cytotoxicity assay (LDH release) in HepG2_LSSprom cells; type: cell-based; settings: human, HepG2 LSSprom cells, LDH release; for IC50 at 24 h: 24 h treatment; for IC50 at 6 h: 6 h treatment
# Description: as §1
# For cytotoxicity assays, cells were plated out at 20,000 cells/well in transparent 96 well plates in DMEM plus 10% FBS and 1% Pen-Strep without puromycin. After 1 day, cells were treated with Compound by diluting in culture medium without FBS to a final concentration of 0.625, 1.25, 2.5, 3.75, 5 and 10 μM. Compound was prepared by dilutions of 10 mM stock aliquots. As a negative control culture medium was used without FBS plus DMSO. As maximum LDH release control (Lysis control) a lysis buffer provided by the kit manufacturer was used. Treatments with Compound were maintained for 6 h, or 24 h, in cell culture medium without serum until the cytotoxicity assay was started.
# The cytotoxicity assay was performed according to the manufacturer's instructions. As maximum LDH release control (Lysis control) 3 wells per plate were treated with 10 μL of lysis buffer 45 min before the treatment was over. Briefly, after the 6 h, or 24 h, of treatment, 50 μL of media from each well was transferred to a new 96-well plate. To the transferred media, 50 μL of reconstituted substrate mix was added. The plates were covered from light and incubated at RT for 10 min. Then, 50 μL of stop solution was added to each well. The plates were then read using a Synergy 4 (Biotek) equipment recording the absorbance at 490 nm.
# as §2
# For cytotoxicity assay, Lysis control was taken as 100%/o of LDH release. The vehicle values were taken as basal LDH release and were subtracted to all the treatments (including vehicle itself) having this value as 0% of LDH release. The LDH release for the treatments was calculated respect to the 100% of LDH release of Lysis control normalized against vehicle. All the negatives values were taken as 0% of cytotoxicity. The graphics were made using the Graph Prism ver. 6.05 software.
# [3] = 24 h, 24 h treatment, HepG2_LSSprom cells, read-out: SREBP2 Cleavage (IC50 μM) 24 h
# [4] = 6 h, 6 h treatment, HepG2_LSSprom cells, read-out: SREBP2 Cleavage (IC50 μM) 6 h
SMILES,"IC50 [1, 3] [µM]","IC50 [1, 4] [µM]",IC50 at 24 h [2] [µM],also measured
"CC(C)(C)OC(=O)NC1CCCN(C(=O)c2ccc(-c3csc(-c4ccnc(C(C)(C)C)c4)c3)c(Cl)c2)C1 (racemic) [Compound 19, tert-butyl N-(1-{4-[5-(2-tert-butylpyridin-4-yl)thiophen-3-yl]-3-chlorobenzoyl}piperidin-3-yl)carbamate]",0.25,,> 3,
"CC(=O)NC1CCCN(C(=O)c2ccc(-c3csc(-c4ccnc(C(C)(C)C)c4)c3)c(Cl)c2)C1 (racemic) [Compound 32, N-[1-[4-[5-(2-tert-butyl-4-pyridyl)-3-thienyl]-3-chloro-benzoyl]-3-piperidyl]acetamide]",,,> 10,"IC50 ([1]; 24 h, read-out: SREBP2 Cleavage (IC50 μM) 24 h): 0.81 µM"
"CC1(N)CCCN(C(=O)c2ccc(-c3cc(-c4ccnc(C(C)(C)C)c4)cs3)c(Cl)c2)C1 (single isomer, unassigned) [Compound 95a]",,,> 10,"IC50 ([1]; 24 h treatment, HepG2_LSSprom cells, read-out: SREBP2 Cleavage (IC50 μM) 24 h): 0.26 µM"
"CC(C)(C)c1cc(-c2cc(-c3ccc(C(=O)N4CCNC(=O)C4)cc3Cl)cs2)ccn1 [Compound 7, 4-{4-[5-(2-tert-butylpyridin-4-yl)thiophen-3-yl]-3-chlorobenzoyl}piperazin-2-one]",> 1,,> 3,
"CC(C)(C)c1cc(-c2cc(-c3ccc(C(=O)NC4CCC4)cc3Cl)cs2)ccn1 [Compound 8, 4-[5-(2-tert-butylpyridin-4-yl)thiophen-3-yl]-3-chloro-N-cyclobutylbenzamide]",> 3,,> 3,
"CC(C)(C)c1cc(-c2cc(-c3ccc(C(=O)N4CCCCC4)cc3Cl)cs2)ccn1 [Compound 11, 2-tert-butyl-4-{4-[2-chloro-4-(piperidine-1-carbonyl)phenyl]thiophen-2-yl}pyridine]",0.3,< 1,,IC50 at 6 h [2]: > 10 µM
"CC(C)(C)c1cc(-c2cc(-c3ccc(C(=O)NC4CC4)cc3Cl)cs2)ccn1 [Compound 14, 4-[5-(2-tert-butylpyridin-4-yl)thiophen-3-yl]-3-chloro-N-cyclopropylbenzamide]",,3.17,,
"Cc1sc(-c2ccnc(C(C)(C)C)c2)cc1-c1ccc(C(=O)N2CCCCC2)cc1Cl [Compound 16, 2-tert-butyl-4-{4-[2-chloro-4-(piperidine-1-carbonyl)phenyl]-5-methylthiophen-2-yl}pyridine]",0.81,,> 3,
"CC(O)CNC(=O)c1ccc(-c2csc(-c3ccnc(N4CCCCC4)c3)n2)c(Cl)c1 (stereo not drawn) [Compound 18, 3-chloro-N-(2-hydroxypropyl)-4-{2-[2-(piperidin-1-yl)pyridin-4-yl]-1,3-thiazol-4-yl}benzamide]",> 3,> 3,,
"CC(C)(C)OC(=O)N[C@H]1CCCN(C(=O)c2ccc(-c3csc(-c4ccnc(C(C)(C)C)c4)c3)c(Cl)c2)C1 [Compound 19b, tert-butyl (S)-(1-(4-(5-(2-(tert-butyl)pyridin-4-yl)thiophen-3-yl)-3-chlorobenzoyl)piperidin-3-yl)carbamate]",0.22,,> 10,
"CC(C)(C)c1cc(-c2cc(-c3ccc(C(=O)N4CCC[C@@H](N)C4)cc3Cl)cs2)ccn1 [Compound 21a, (R)-(3-aminopiperidin-1-yl)(4-(5-(2-(tert-butyl)pyridin-4-yl)thiophen-3-yl)-3-chlorophenyl)methanone]",0.71,,> 10,

# Continued, in another order:
"IC50 [1, 3] [µM]","IC50 [1, 4] [µM]",SMILES,IC50 at 24 h [2] [µM],also measured
> 1,,"CC(C)(C)c1cc(-c2cc(-c3ccc(C(=O)N4CCCC(N)C4)cc3Cl)cs2)ccn1 (racemic) [Compound 21, 1-{4-[5-(2-tert-butylpyridin-4-yl)thiophen-3-yl]-3-chlorobenzoyl}piperidin-3-amine]",> 3,
0.99,,"CC(C)(C)c1cc(-c2cc(-c3ccc(C(=O)N4CCCC(NS(C)(=O)=O)C4)cc3Cl)cs2)ccn1 (racemic) [Compound 31, N-(1-{4-[5-(2-tert-butylpyridin-4-yl)thiophen-3-yl]-3-chlorobenzoyl}piperidin-3-yl)methanesulfonamide]",> 10,
0.85,,"CC(C)(C)c1cc(-c2cc(-c3ccc(C(=O)N4CCCC(N5CCCC5=O)C4)cc3Cl)cs2)ccn1 (racemic) [Compound 34, 1-(1-{4-[5-(2-tert-butylpyridin-4-yl)thiophen-3-yl]-3-chlorobenzoyl}piperidin-3-yl) pyrrolidin-2-one]",> 10,
0.49,,"CC(C)(C)c1cc(-c2cc(-c3ccc(C(=O)N4CCCC(N5CCCS5(=O)=O)C4)cc3Cl)cs2)ccn1 (racemic) [Compound 36, 2-(1-{4-[5-(2-tert-butylpyridin-4-yl)thiophen-3-yl]-3-chlorobenzoyl}piperidin-3-yl)-1λ^6,2-thiazolidine-1,1-dione]",> 10,
> 3,,"CN1CCN(C(=O)c2ccc(-c3csc(-c4ccnc(C(C)(C)C)c4)c3)c(Cl)c2)CC1 [Compound 10, 1-{4-[5-(2-tert-butylpyridin-4-yl)thiophen-3-yl]-3-chlorobenzoyl}-4-methylpiperazine]",,
0.5,> 10,"CC(C)(C)c1cc(-c2cc(-c3ccc(C(=O)N4CCC(F)(F)C4)cc3Cl)cs2)ccn1 [Compound 12, 2-tert-butyl-4-{4-[2-chloro-4-(3,3-difluoropyrrolidine-1-carbonyl)phenyl]thiophen-2-yl}pyridine]",,IC50 at 6 h [2]: > 10 µM
0.54,> 10,"CC(C)(C)c1cc(-c2cc(-c3ccc(C(=O)N4CCC(F)(F)CC4)cc3Cl)cs2)ccn1 [Compound 13, 2-tert-butyl-4-{4-[2-chloro-4-(4,4-difluoropiperidine-1-carbonyl)phenyl]thiophen-2-yl}pyridine]",,IC50 at 6 h [2]: > 10 µM
,> 5,"CC(C)(C)NC(=O)c1ccc(-c2csc(-c3ccnc(C(C)(C)C)c3)c2)c(Cl)c1 [Compound 15, N-tert-butyl-4-[5-(2-tert-butylpyridin-4-yl)thiophen-3-yl]-3-chlorobenzamide]",,
> 3,> 3,"O=C(c1ccc(-c2csc(-c3ccnc(N4CCCCC4)c3)n2)c(Cl)c1)N1CCOCC1 [Compound 17, 4-(3-chloro-4-{2-[2-(piperidin-1-yl)pyridin-4-yl]-1,3-thiazol-4-yl}benzoyl) morpholine]",,
0.069,,"CC(C)(C)OC(=O)N[C@@H]1CCCN(C(=O)c2ccc(-c3csc(-c4ccnc(C(C)(C)C)c4)c3)c(Cl)c2)C1 [Compound 19a, tert-butyl (R)-(1-(4-(5-(2-(tert-butyl)pyridin-4-yl)thiophen-3-yl)-3-chlorobenzoyl)piperidin-3-yl)carbamate]",> 10,
> 3,,"CC(C)(C)c1cc(-c2cc(-c3ccc(C(=O)N4CCS(=O)(=O)CC4)cc3Cl)cs2)ccn1 [Compound 20, 4-{4-[5-(2-tert-butylpyridin-4-yl)thiophen-3-yl]-3-chlorobenzoyl}-1λ^6,4-thiomorpholine-1,1-dione]",,
> 3,,"CC(C)(C)c1cc(-c2cc(-c3ccc(C(=O)N4CCC[C@H](N)C4)cc3Cl)cs2)ccn1 [Compound 21b, (S)-(3-aminopiperidin-1-yl)(4-(5-(2-(tert-butyl)pyridin-4-yl)thiophen-3-yl)-3-chlorophenyl)methanone]",> 10,
